These results are taken from patent US7951921B2, “Multivalent carriers of bi-specific antibodies” (Immunomedics, Inc., priority 2003, dated 2011).

The target in series [1] is IMP 246 [Ac-Cys-Lys(DTPA)-Tyr-Lys(DTPA)-NH2]2. Nature of the series: size exclusion HPLC; In-111 IMP 246 mixed with bsAb at 1:10 (IMP 246:bsAb) mole ratio. (In general: Size exclusion chromatography separates by hydrodynamic size, large species first.)
For series [2] the following is noted: cited from earlier work.
The conditions of series [3]: not told; cited from earlier work.
In series [4] the test system is hMN-14IgG^(I253A)-(734scFv)2. The experiment in a line: Complex formation of radiolabeled DTPA peptides with bsMAb, size exclusion HPLC. The series is classed as binding. To be noted: for complexing of bsMAb with radiolabeled indium-DTPA chelates: radioiodinated bsMAb, size exclusion HPLC. From the text: The binding of In-DTPA peptides to the anti-In-DTPA antibody hMN-14IgG^(I253A)-(734scFv)2 was examined by size exclusion HPLC. The bsMAb was radioiodinated using chloramines-T (Greenwood and Hunter). Binding of the radioiodinated bsMAbs to CEA, WI2 (rat anti-MN-14 idiotypic antibody) and radiolabeled peptidyl DTPA chelate was examined on analytical size exclusion HPLC. Approximately 90% of the radioiodinated bsMAb bound to CEA upon treatment with 10-20× molar excess of CEA. The bsMAb complexed with radiolabeled indium-DTPA chelates (IMP-156 or IMP-192).
An IMP 192 kit was labeled with Tc-99m 20.9 mCi. Aliquots from the kit were diluted and mixed with hMN-14IgG^(I253A)-(734scFv)2 in the following molar ratios (peptide/Ab) 1:5, 1:1, and 20:1. The peptide/antibody mixtures, the peptide alone and the antibody alone were examined on a Bio-Sil SEC 250 300 mm×7.8 mm HPC column eluted at 1 mL/min with 0.2 M phosphate buffer pH 6.8.
A known standard of hMN-14IgG^(I253A)-(734scFv)2 eluted from the column at about 9.41 minutes (FIG. 3). A known standard of Tc-99m IMP 192 eluted from the column at about 14.85 minutes (FIG. 4).

Series [5] has as its target CEA (carcinoembryonic antigen) (UniProt P06731). The experiment in a line: analytical size exclusion HPLC of radioiodinated bsMAb mixed with 10-20x molar excess of CEA.
Sequence of UniProt P06731 (P06731 35-685 limits assumed): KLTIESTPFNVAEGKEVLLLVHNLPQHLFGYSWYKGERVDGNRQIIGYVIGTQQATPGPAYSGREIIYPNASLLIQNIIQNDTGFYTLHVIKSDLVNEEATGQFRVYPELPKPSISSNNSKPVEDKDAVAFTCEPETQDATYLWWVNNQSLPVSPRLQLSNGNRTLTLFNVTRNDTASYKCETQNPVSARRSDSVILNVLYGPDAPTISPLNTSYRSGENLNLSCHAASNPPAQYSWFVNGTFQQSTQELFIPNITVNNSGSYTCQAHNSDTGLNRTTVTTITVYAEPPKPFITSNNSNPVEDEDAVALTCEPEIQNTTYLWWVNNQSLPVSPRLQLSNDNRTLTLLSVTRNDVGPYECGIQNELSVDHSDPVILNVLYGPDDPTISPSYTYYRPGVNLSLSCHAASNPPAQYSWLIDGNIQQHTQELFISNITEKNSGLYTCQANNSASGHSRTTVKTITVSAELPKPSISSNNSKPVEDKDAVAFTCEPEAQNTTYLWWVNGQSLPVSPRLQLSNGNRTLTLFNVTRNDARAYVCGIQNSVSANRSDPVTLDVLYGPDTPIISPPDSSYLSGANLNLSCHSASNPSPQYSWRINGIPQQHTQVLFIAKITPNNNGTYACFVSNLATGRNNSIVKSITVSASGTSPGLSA
Series [6] deals with IMP 246 [Ac-Cys-Lys(DTPA)-Tyr-Lys(DTPA)-NH2]2. Nature of the series: size exclusion HPLC; labeled IMP 246 mixed with hMN-14 IgG^(I253A)-(734scFv)2, 16 hr at 37° C. in mouse serum.
The subject of series [7] is hMN-14IgG^(I253A)-(734scFv)2. The experiment in a line: Affinity blocking studies on IMP 240-coated BIAcore chip (surface plasmon resonance). The class given is binding. As to the method: (§1) The binding of In-DTPA peptides to the anti-In-DTPA antibody hMN-14IgG^(I253A)-(734scFv)2 was examined by affinity blocking studies using the IMP 240 peptide, Ac-Lys(DPTA)-Cys-NH2, which comprises a single DPTA group and a single Cys residue that can be used to form disulfide bridges with a second molecule having a free sulfhydryl group.
(§2) The binding studies were performed on a chip coated with IMP 240 using the disulfide connection as recommended by BIAcore. The chip surface was regenerated after each assay with 100 μL 0.025 M In-DTPA in HBS-In-citrate buffer as described. The binding studies were done with picomoles of antibody therefore binding was very sensitive to the slightest trace of In-DTPA left after the displacement wash.
A general note: Surface plasmon resonance follows binding to a sensor surface in real time, without labels.

In series [8] the test system is c734 IgG. Described as above. The class given is binding. The method, then: as §1, §2
Studies were performed with c734-IgG to compare the In-DTPA peptide binding behavior of this IgG to the hMN-14IgG^(I253A)-(734scFv)2.

In series [9] the target is c734 IgG. The experiment in a line: SPR blocking assay; peptide premixed with antibody, IMP 240 chip.
The target in series [10] is hMN-14IgG^(I253A)-(734scFv)2. The description is as above.

Primed or numbered codes have the meaning given here. DTPA′ = diethylenetriaminepentaacetic acid

Regarding “hMN-14IgG-(734scFv)2 (bispecific antibody)”, the percent of In-111 label in the complex peak in series [1] was found to be 83%.
Regarding `O=C(CCCc1ccc(N2C(=O)C=CC2=O)cc1)ON1C(=O)CC(S(=O)(=O)O)C1=O` (centres unmarked) [Sulfo-SMPB, sulfosuccinimidyl 4-[p-maleimidophenyl]butyrate], the “Water Soluble” value in series [2] is given as “Yes”.
For the molecule `O=C(CBr)NCCC(=O)ON1C(=O)CCC1=O` [SBAP], the “Membrane Permeable” value in series [3] is listed as “Yes”.
As for `O=C(O)CCN1C(=O)C=CC1=O` [BMPA], the “Membrane Permeable” value in [3] was “No”.
With `O=C(O)CCCCCN1C(=O)C=CC1=O` [EMCA], the “Membrane Permeable” value in [3] is “No”.
In the case of “Ac-Lys(DTPA)-Tyr-Lys(DTPA)-Lys(TSCG-Cys)-NH2 [IMP 192]”, in series [4] (Tc-99m IMP 192 mixed with antibody, molar ratios 1:5, 1:1, 20:1), the “peptide/antibody complexes formed (HPLC traces)” value was “essentially only one peptide/antibody complex is formed”. The “complexing of bsMAb with radiolabeled indium-DTPA chelates” value in series [4] is recorded as “complexed”.
On to `O=C(CCCCCCCCCCN1C(=O)C=CC1=O)ON1C(=O)CC(S(=O)(=O)O)C1=O.[Na]` (centres unmarked) [Sulfo-KMUS], for which the “Membrane Permeable” value in series [3] is listed as “No”.
Take `O=C(CCCCCN1C(=O)C=CC1=O)ON1C(=O)CC(S(=O)(=O)O)C1=O` (centres unmarked) [Sulfo-EMCS, N-[ε-maleimidocaproyloxy]sulfosuccinimide ester]: in [3], the “Membrane Permeable” value is “No”.
`O=C(ON1C(=O)CC(S(=O)(=O)O)C1=O)C1CCC(CN2C(=O)C=CC2=O)CC1` (centres unmarked) [Sulfo-SMCC, sulfosuccinimidyl 4-(N-maleimidomethyl)cyclohexane-1-carboxylate]: the “Membrane Permeable” value in series [3] is on record as “No”.
In the case of `O=C(CCSSc1ccccn1)NCCCCCC(=O)ON1C(=O)CCC1=O` [LC-SPDP, N-succinimidyl 6-[3′-(2-pyridyldithio)propionamido]hexanoate], the “Water Soluble” value in series [2] is given as “No”.
With `O=C(CCSSc1ccccn1)NCCCCCC(=O)ON1C(=O)CC(S(=O)(=O)O)C1=O` (centres unmarked) [Sulfo-LC-SPDP, sulfosuccinimidyl 6-[3′-(2-pyridyldithio)-propionamido] hexanoate], the “Water Soluble” value in [2] is listed as “Yes”.
Take `CC(SSc1ccccn1)c1ccc(C(=O)ON2C(=O)CCC2=O)cc1` (centres unmarked) [SMPT, 4-succinimidyloxycarbonyl-methyl-(2-pyridyldithio)-toluene]: the “Water Soluble” value in series [2] is given as “No”.
Take `C=CS(=O)(=O)c1ccc(C(=O)ON2C(=O)CCC2=O)cc1` [SVSB]: the “Membrane Permeable” value in series [3] was “Yes”.
Regarding `CCN=C=NCCCN(C)C` [EDC, 1-ethyl-3-(3-dimethylaminopropyl)-carbodiimide], the “Water Soluble” value in series [2] is reported as “Yes”.
As for `CC(=O)SCCC(=O)ON1C(=O)CCC1=O` [SATP], the “Membrane Permeable” value in series [3] is on record as “Yes”.
On to `Cl.NCCSSCCC(=O)O` [AEDP], for which the “Membrane Permeable” value in series [3] is reported as “No”.
Regarding `CC(SSc1ccccn1)c1ccc(C(=O)NCCCCCC(=O)ON2C(=O)CC(S(=O)(=O)O)C2=O)cc1` (centres unmarked) [Sulfo-LC-SMPT, sulfosuccinimidyl 6-[a-methyl-a-(2-pyridyl-dithio)toluamido]hexanoate], the “Water Soluble” value in series [2] is “Yes”.
Turning to `O=C(CCCN1C(=O)C=CC1=O)ON1C(=O)CCC1=O` [GMBS, N-[γ-Maleimidobutyryloxy] succinimide ester], the “Membrane Permeable” value in [3] is listed as “Yes”.
As to `O=C(CI)Nc1ccc(C(=O)ON2C(=O)CC(S(=O)(=O)O)C2=O)cc1` (centres unmarked) [Sulfo-SIAB, sulfosuccinimidyl(4-iodoacetyl)aminobenzoate], the “Membrane Permeable” value in series [3] is given as “No”.
As for `O=C(CCSSc1ccccn1)ON1C(=O)CCC1=O` [SPDP, N-succinimidyl 3-(2-pyridyldithio)propionate], the “Membrane Permeable” value in series [3] is reported as “Yes”.
For `O=C(ON1C(=O)CCC1=O)c1cccc(N2C(=O)C=CC2=O)c1` [MBS, m-maleimidobenzoyl-N-hydoxysuccinimide ester], the “Membrane Permeable” value in series [3] is “Yes”.
On to `O=C(CI)Nc1ccc(C(=O)ON2C(=O)CCC2=O)cc1` [SIAB, N-succinimidyl(4-iodoacetyl)aminobenzoate], for which the “Membrane Permeable” value in series [3] is “Yes”.
As for `O=C(CCCCCN1C(=O)C=CC1=O)ON1C(=O)CCC1=O` [EMCS, N-[ε-maleimidocaproyloxy]succinimide ester], in [3], the “Membrane Permeable” value is “Yes”.
As for `O=C(CCCN1C(=O)C=CC1=O)ON1C(=O)CC(S(=O)(=O)O)C1=O` (centres unmarked) [Sulfo-GMBS, N-[γ-Maleimidobutyryloxy] sulfosuccinimide ester], the “Membrane Permeable” value in [3] is “No”.
As to `O=C(ON1C(=O)CCC1=O)C1CCC(CN2C(=O)C=CC2=O)CC1` (centres unmarked) [SMCC, succinimidyl 4-(N-maleimidomethyl)cyclohexane-1-carboxylate], in series [3], the “Membrane Permeable” value is “Yes”.
In series [5], “hMN-14IgG^(I253A)-(734scFv)2 (bispecific antibody)” showed a percent of bsMAb bound of 90%. The percent of In-111 label in the complex peak in [1] amounted to 90%. Moreover, the percent of HPLC area in the complex peak after 16 hr in mouse serum in [6] is more than 90%.
With “Ac-Phe-Gln-Tyr-Lys(DTPA)-NH2 (Ac-FQYK(DTPA′)-NH2) [IMP 233]”, the “blocking of antibody binding to the IMP 240 chip” value was “not completely blocked” in series [7] (four equivalents of peptide premixed with the antibody) and “did not completely block” in the series on c734 IgG [8] (4:1 peptide/c734 IgG).
Turning to “Ac-Phe-Lys(DTPA)-Tyr-Lys(DTPA)-NH2 (Ac-FK(DTPA′)YK(DTPA′)-NH2) [IMP 156]”, in series [7], the “affinity of antibody for In-IMP 156 relative to a single In-DTPA for a c734 IgG binding arm” value is listed as “far higher” and the “equivalents of peptide that block binding to the chip” value is listed as “one equivalent”. The “blocking of antibody binding to the IMP 240 chip” value in series [7] (peptide mixed with antibody in a 1:1 ratio) is reported as “completely blocked”. Further, in series [4], the “complexing of bsMAb with radiolabeled indium-DTPA chelates” value is recorded as “complexed”. Also, in the series with c734 IgG [8], the “equivalents of peptide needed to block binding to the chip” value is on record as “two or more equivalents”.
As for `O=C(O)CCCCCCCCCCN1C(=O)C=CC1=O` [KMUA], the “Membrane Permeable” value in series [3] was “No”.
For `O=C(CCCCCNC(=O)C1CCC(CN2C(=O)C=CC2=O)CC1)ON1C(=O)CCC1=O` (centres unmarked) [LC-SMCC, succiminidyl-4-(N-maleimidomethyl)cyclohexane-1-carboxy-(6-amido-caproate)], the “Membrane Permeable” value in [3] is recorded as “No”.
As to `O=C(ON1C(=O)CC(S(=O)(=O)O)C1=O)c1cccc(N2C(=O)C=CC2=O)c1` (centres unmarked) [Sulfo-MBS, m-maleimidobenzoyl-N-hydoxysulfosuccinimide ester], the “Membrane Permeable” value in [3] is on record as “No”.
Regarding Ac-FK(DTPA′)YK(DTPA′)-NH2 (also: DTPA loaded with indium) [IMP 156 Ac-Phe-Lys(DTPA)-Tyr-Lys(DTPA)-NH2], the equivalents of peptide needed to block binding to the IMP 240 chip in the series with c734 IgG [9] was found to be 2 equivalents; in series [10], 1 equivalents.
